Reference: US11124486B2, “6-membered heterocyclic derivatives and pharmaceutical composition comprising the same” (Shionogi & Co., Ltd., priority 2015, dated 2021)

target: human P2X7 receptor (Homo sapiens, UniProt Q99572, R270H/Y155H); assay: Evaluation of a human P2X7 receptor inhibitory activity (Yo-Pro uptake, BzATP stimulation, FLIPR TETRA); format: cell-based; details: 1321N1 cells expressing human P2X7 receptor; BzATP stimulation, Yo-Pro uptake; read-out: IC50 (antagonistic activity for the human P2X7 receptor)
Procedure: Test Example 1 Evaluation of a Human P2X7 Receptor Inhibitory Activity
Stably expressing cell line (1321N1 cell transfected with the human P2X7 receptor gene (GenBank accession number NM_002502.5 including T606C and G952A SNP)) was used. The cells were seeded in a 384-well microtiter plate at a concentration of 8000 cells/well and cultured in the medium (10% fetal bovine serum, 25 mM HEPES, 1% penicillin and streptomycin in DMEM) for one day at 37° C. under 5% carbon dioxide atmosphere. After replacing with 20 μL of the HBSS buffer (20 mM HEPES, 55.6 mM D-glucose, 1×HBSS(−), pH7.4-7.5). 16 μL of 17.3 μM Yo-Pro solution in the HBSS buffer was added. The plate was placed in high-throughput cellular screening system FLIPR TETRA (Molecullar Devices, LLC.) and 15 μL of 130 μM BzATP solution in the HBSS buffer was added. Measurement, of fluorescence intensity by FLIPR TETRA was started. After eight minutes, 15 μL of DMSO solutions containing different concentrations of the compound of the present invention as prepared by dilution with the HBSS buffer were dispensed to each well through the built-in automatic dispenser, and the measurement of fluorescence intensity was continued for 20 minutes. […] Changing values of fluorescence intensity by the compound of the present invention were calculated by difference between maximum and minimum fluorescence intensity for 20 minutes. Inhibition ratios (%) were calculated from the following equation:
[formula] IC50 was calculated using Logistic approximation.

Structure (SMILES)	IC50 [nM]
COc1cn(Cc2ccc(F)c(Cl)c2)c(Nc2cc3sc(C)nc3cc2C)cc1=O [Compound I-0033]	49
COc1cn(Cc2ccc(F)c(Cl)c2)c(Oc2cc(C)c(C)cc2C)nc1=O [Compound I-0358]	160
COc1cn(Cc2cc(F)cc(F)c2)c(NCc2cccc(Cl)c2C)nc1=O [Compound I-0452]	110

same assay, conditions: 1321N1 cells expressing human P2X7 receptor; BzATP stimulation, Yo-Pro uptake; read-out: IC50 (antagonistic activity for the human P2X7 receptor), class

Structure (SMILES)	IC50 [nM]
Cc1c(Cl)cccc1Nc1nc(=O)c(OOC(C)(C)C)cn1Cc1ccccc1 [Compound I-0111]	100 to 500
COc1cn(Cc2ccccc2)c(Nc2cccc(C)c2Cl)nc1=O [Compound I-0112]	10 to 100
COc1cc(C)c(Nc2nc(=O)c(OC)cn2Cc2cccc(F)c2)cc1C [Compound I-0249]	< 10
COc1cn(Cc2ccccc2)c(Oc2cc(C)c(C)cc2C)nc1=O [Compound I-0357]	500 to 1000
COc1cn(Cc2cccc(OC(F)F)c2)c(Nc2cccc(Cl)c2C)nc1=O [Compound I-0422]	500 to 1000
COc1cc(C)c(Nc2nc(=O)c(OC)cn2Cc2cc(F)cc(Cl)c2)cc1C [Compound I-0446]	< 10
CCc1cc(OC)ccc1Nc1nc(=O)c(OC)cn1Cc1cc(F)cc(Cl)c1 [Compound I-0447]	< 10
COc1cn(Cc2ccccc2)c(Nc2cc(S(C)(=O)=O)c(C)cc2C)nc1=O [Compound I-0448]	10 to 100
COc1cn(Cc2ccc(F)c(Cl)c2)c(Nc2cc(S(C)(=O)=O)c(C)cc2C)nc1=O [Compound I-0449]	< 10
CCc1ccc(F)cc1Nc1nc(=O)c(OC)cn1Cc1ccccc1 [Compound I-0450]	10 to 100
CCOc1ccc(C)c(Nc2nc(=O)c(OC)cn2Cc2ccc(F)c(F)c2)c1 [Compound I-0457]	< 10
CCOc1ccc(C)c(Nc2nc(=O)c(OC)cn2Cc2cc(F)cc(F)c2)c1 [Compound I-0458]	10 to 100
CCOc1ccc(C)c(Nc2nc(=O)c(OC)cn2Cc2ccc(F)c(Cl)c2)c1 [Compound I-0459]	< 10
CCOc1ccc(C)c(Nc2nc(=O)c(OC)cn2Cc2cc(F)cc(Cl)c2)c1 [Compound I-0460]	10 to 100
COc1cn(Cc2ccc(F)c(F)c2)c(Nc2ccc(C)cc2C)nc1=O [Compound I-0461]	< 10
COc1cn(Cc2cc(F)cc(Cl)c2)c(Nc2ccc(C)cc2C)nc1=O [Compound I-0462]	10 to 100
COc1cn(Cc2cc(F)cc(F)c2)c(Nc2ccc(C)cc2C)nc1=O [Compound I-0463]	< 10
COc1cc(C)c(Nc2nc(=O)c(OC)cn2Cc2ccccc2)cc1Cl [Compound I-0464]	< 10
COc1cc(C)c(Nc2nc(=O)c(OC)cn2Cc2ccc(F)c(Cl)c2)cc1Cl [Compound I-0465]	< 10
COc1cn(Cc2cccc(Cl)c2)c(Nc2cccc(C(F)(F)F)c2C)nc1=O [Compound I-0466]	10 to 100
COc1cc(Nc2nc(=O)c(OC)cn2Cc2cccc(F)c2)c(C)cc1Cl [Compound I-0474]	< 10
COc1cc(Nc2nc(=O)c(OC)cn2Cc2ccc(F)cc2)c(C)cc1Cl [Compound I-0475]	< 10
COc1cccc(Nc2nc(=O)c(OC)cn2Cc2cccc(Cl)c2)c1C [Compound I-0476]	< 10
COc1cccc(Nc2nc(=O)c(OC)cn2Cc2ccc(F)c(F)c2)c1C [Compound I-0477]	< 10
COc1cccc(Nc2nc(=O)c(OC)cn2Cc2ccc(F)c(Cl)c2)c1C [Compound I-0478]	< 10
COc1cn(Cc2cc(F)cc(Cl)c2)c(Nc2cc(OCC(F)(F)F)ccc2C)nc1=O [Compound I-0498]	100 to 500

same assay, conditions: antagonistic activity for the human P2X7 receptor; 1321N1 cells expressing human P2X7, BzATP-stimulated Yo-Pro uptake; read-out: IC50

Structure (SMILES)	IC50 [nM]
COc1cn(Cc2cc(F)c(F)c(F)c2)c(Cc2cccc3[nH]c(=O)ccc23)nc1=O [Compound I-0602]	100 to 500
COC1CN(Cc2ccc(F)c(F)c2)C(Nc2cc(S(C)(=O)=O)c(C)cc2C)=NC1=O (stereo not drawn) [Compound I-0605]	10 to 100
COc1cn(Cc2ccccc2)c(Nc2ccc(C)cc2F)nc1=O [Compound I-0762]	100 to 500
COc1cn(Cc2ccc(F)c(Cl)c2)c(Nc2c(C)cc3c(c2C)COC3)nc1=O [Compound I-0907]	< 10
COc1cc(C)c(Nc2nc(=O)cc(C)n2Cc2cc(F)c(F)c(F)c2)cc1OC [Compound I-1153]	< 10
COc1ccc(NC2=NC(=O)CC(C)N2Cc2cc(F)c(F)c(F)c2)c(C)c1 (stereo not drawn) [Compound I-1167]	< 10
Cc1cc(F)c(-c2cccn(C)c2=O)cc1Nc1nc(=O)c(F)cn1Cc1cc(F)c(F)c(F)c1 [Compound I-1222]	< 10
